Test results as given in ChEMBL document CHEMBL1144654, “Discovery of 1-(4-phenoxypiperidin-1-yl)-2-arylaminoethanone stearoyl-CoA desaturase 1 inhibitors” (Bioorg Med Chem Lett, 2007).

Biological target: T1, Stearoyl-CoA desaturase (Homo sapiens, UniProt O00767)
T1 sequence (O00767 whole entry): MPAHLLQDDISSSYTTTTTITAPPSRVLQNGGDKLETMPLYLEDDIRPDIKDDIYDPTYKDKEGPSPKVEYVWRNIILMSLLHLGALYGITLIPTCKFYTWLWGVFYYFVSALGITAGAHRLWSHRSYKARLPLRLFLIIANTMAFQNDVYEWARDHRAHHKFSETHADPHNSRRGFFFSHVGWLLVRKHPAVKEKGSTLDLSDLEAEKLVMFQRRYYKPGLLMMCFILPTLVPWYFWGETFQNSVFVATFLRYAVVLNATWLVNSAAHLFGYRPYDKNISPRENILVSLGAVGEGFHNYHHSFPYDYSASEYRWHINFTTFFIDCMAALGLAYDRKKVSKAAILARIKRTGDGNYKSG
Experiment: Inhibition of human SCD1

Structure (SMILES) | IC50
CC(C)CNC(=O)c1nccnc1NCC(=O)N1CCC(Oc2ccccc2Cl)CC1 | 260 nM
CNC(=O)c1nccnc1NCC(=O)N1CCC(Oc2ccccc2Cl)CC1 | 51 nM
CNC(=O)c1nccnc1NCC(=O)N1CCC(Oc2cc(F)cc(F)c2Cl)CC1 | 35 nM
CNC(=O)c1nccnc1NCC(=O)N1CCC(Oc2cc(F)ccc2Cl)CC1 | 51 nM
O=C(NC1CCCC1)c1ncccc1NCC(=O)N1CCC(Oc2ccccc2C(F)(F)F)CC1 | > 10000 nM
O=C(CNc1nccnc1Cl)N1CCC(Oc2ccccc2Cl)CC1 | 30 nM
O=C(NCc1ccccn1)c1nccnc1NCC(=O)N1CCC(Oc2ccccc2Cl)CC1 | 110 nM
N#Cc1nccnc1NCC(=O)N1CCC(Oc2ccccc2Cl)CC1 | 340 nM
O=C(NCc1ccccc1)c1nccnc1NCC(=O)N1CCC(Oc2ccccc2Cl)CC1 | 140 nM
O=C(Nc1ccccc1)c1nccnc1NCC(=O)N1CCC(Oc2ccccc2Cl)CC1 | 550 nM
CNC(=O)c1nccnc1NCC(=O)N1CCC(Oc2ccccc2Br)CC1 | 58 nM
CCNC(=O)c1ncccc1NCC(=O)N1CCC(Oc2ccccc2C(F)(F)F)CC1 | 110 nM
CNC(=O)c1nccnc1NCC(=O)N1CCC(C(=O)c2ccccc2)CC1 | > 1000 nM
COC(=O)c1nccnc1NCC(=O)N1CCC(Oc2ccccc2Cl)CC1 | 39 nM
O=C(NCc1cccnc1)c1ncccc1NCC(=O)N1CCC(Oc2ccccc2C(F)(F)F)CC1 | 430 nM
CCNC(=O)c1nccnc1NCC(=O)N1CCC(Oc2ccccc2Cl)CC1 | 39 nM
CNC(=O)c1nccnc1NCC(=O)N1CCC(Oc2cc(Cl)ccc2Cl)CC1 | 38 nM

Structure (SMILES) | IC50
O=C(NCc1ccncc1)c1ncccc1NCC(=O)N1CCC(Oc2ccccc2C(F)(F)F)CC1 | 350 nM
O=C(NCCc1ccccc1)c1ncccc1NCC(=O)N1CCC(Oc2ccccc2C(F)(F)F)CC1 | 780 nM
O=C(NCc1ccccc1)c1cccc(NCC(=O)N2CCC(Oc3ccccc3C(F)(F)F)CC2)n1 | 7300 nM
O=C(NCc1ccccc1)c1ncccc1NCC(=O)N1CCC(Oc2ccccc2Cl)CC1 | 560 nM
O=C(NCCO)c1nccnc1NCC(=O)N1CCC(Oc2ccccc2Cl)CC1 | 100 nM
O=C(NCc1ccncc1)c1nccnc1NCC(=O)N1CCC(Oc2ccccc2Cl)CC1 | 110 nM
CNC(=O)c1nccnc1NCC(=O)N1CCC(Oc2ccccc2)CC1 | 6300 nM
O=C(NCCO)c1ncccc1NCC(=O)N1CCC(Oc2ccccc2C(F)(F)F)CC1 | 120 nM
CNC(=O)c1ncccc1NCC(=O)N1CCC(Oc2ccccc2C(F)(F)F)CC1 | 97 nM
CNC(=O)c1cccnc1NCC(=O)N1CCC(Oc2ccccc2C(F)(F)F)CC1 | > 1000 nM
O=Cc1nccnc1NCC(=O)N1CCC(Oc2ccccc2Cl)CC1 | 210 nM
CN(C)C(=O)c1ncccc1NCC(=O)N1CCC(Oc2ccccc2C(F)(F)F)CC1 | > 10000 nM
O=C(NCc1ccccc1)c1ccccc1NCC(=O)N1CCC(Oc2ccccc2Cl)CC1 | 580 nM
NC(=O)c1nccnc1NCC(=O)N1CCC(Oc2ccccc2Cl)CC1 | 94 nM
NC(=O)c1ncccc1NCC(=O)N1CCC(Oc2ccccc2C(F)(F)F)CC1 | 90 nM
CCCNC(=O)c1ncccc1NCC(=O)N1CCC(Oc2ccccc2C(F)(F)F)CC1 | 390 nM
O=C(NCc1cccnc1)c1nccnc1NCC(=O)N1CCC(Oc2ccccc2Cl)CC1 | 99 nM
